Results: the NIST ThermoML archive (doi:10.1016/j.jct.2019.03.023)
“And” between values parts separate entries of the source, which are not always exact repeats. Equal entries are not always repeated. Numbers after ± are expanded uncertainties.

Test: molar heat capacity at constant volume
Settings: Vacuum adiabatic calorimetry

CC(C)O [propan-2-ol]
molar heat capacity at constant volume (508.7 K, Fluid (supercritical or subcritical phases), Mass density=255.8 kg/m3): 524.03 ± 16 J/K/mol and 301.68 ± 9.1 J/K/mol
molar heat capacity at constant volume (508.7 K, Gas): 301.68 ± 10 J/K/mol
molar heat capacity at constant volume (508.71 K, Fluid (supercritical or subcritical phases), Mass density=266.3 kg/m3): 520.48 ± 16 J/K/mol
molar heat capacity at constant volume (508.71 K, Fluid (supercritical or subcritical phases), Mass density=281.9 kg/m3): 469.58 ± 14 J/K/mol and 277.46 ± 8.4 J/K/mol
molar heat capacity at constant volume (508.71 K, Liquid): 277.46 ± 9.9 J/K/mol
molar heat capacity at constant volume (508.72 K, Fluid (supercritical or subcritical phases), Mass density=266.3 kg/m3): 572.71 ± 17 J/K/mol and 337.73 ± 10 J/K/mol
molar heat capacity at constant volume (508.72 K, Fluid (supercritical or subcritical phases), Mass density=274 kg/m3): 515.62 ± 16 J/K/mol and 304.08 ± 9.1 J/K/mol
molar heat capacity at constant volume (508.72 K, Fluid (supercritical or subcritical phases), Mass density=293.3 kg/m3): 245.07 ± 7.3 J/K/mol
molar heat capacity at constant volume (508.72 K, Gas): 337.73 ± 15 J/K/mol
molar heat capacity at constant volume (508.72 K, Liquid): 304.08 ± 12 J/K/mol
molar heat capacity at constant volume (508.73 K, Fluid (supercritical or subcritical phases), Mass density=255.8 kg/m3): 293.08 ± 8.8 J/K/mol
molar heat capacity at constant volume (508.74 K, Fluid (supercritical or subcritical phases), Mass density=281.9 kg/m3): 270.61 ± 8.1 J/K/mol
molar heat capacity at constant volume (508.75 K, Fluid (supercritical or subcritical phases), Mass density=234.3 kg/m3): 245.01 ± 7.3 J/K/mol
molar heat capacity at constant volume (508.75 K, Fluid (supercritical or subcritical phases), Mass density=266.3 kg/m3): 306.97 ± 9.2 J/K/mol
molar heat capacity at constant volume (508.75 K, Fluid (supercritical or subcritical phases), Mass density=288.99 kg/m3): 247.77 ± 7.5 J/K/mol
molar heat capacity at constant volume (508.75 K, Fluid (supercritical or subcritical phases), Mass density=324.5 kg/m3): 199.15 ± 6 J/K/mol
molar heat capacity at constant volume (508.75 K, Fluid (supercritical or subcritical phases), Mass density=343.1 kg/m3): 175.96 ± 5.3 J/K/mol
molar heat capacity at constant volume (508.76 K, Fluid (supercritical or subcritical phases), Mass density=329.2 kg/m3): 186.9 ± 5.6 J/K/mol
molar heat capacity at constant volume (508.84 K, Fluid (supercritical or subcritical phases), Mass density=234.3 kg/m3): 238.7 ± 7.2 J/K/mol
molar heat capacity at constant volume (508.84 K, Fluid (supercritical or subcritical phases), Mass density=255.8 kg/m3): 268.32 ± 8.1 J/K/mol
molar heat capacity at constant volume (508.84 K, Fluid (supercritical or subcritical phases), Mass density=266.3 kg/m3): 281.06 ± 8.4 J/K/mol
molar heat capacity at constant volume (508.84 K, Fluid (supercritical or subcritical phases), Mass density=274 kg/m3): 273.13 ± 8.2 J/K/mol
molar heat capacity at constant volume (508.84 K, Fluid (supercritical or subcritical phases), Mass density=281.9 kg/m3): 250 ± 7.5 J/K/mol
molar heat capacity at constant volume (508.84 K, Fluid (supercritical or subcritical phases), Mass density=288.99 kg/m3): 237.68 ± 7.2 J/K/mol
molar heat capacity at constant volume (508.84 K, Fluid (supercritical or subcritical phases), Mass density=293.3 kg/m3): 231.97 ± 7 J/K/mol
molar heat capacity at constant volume (508.84 K, Fluid (supercritical or subcritical phases), Mass density=324.5 kg/m3): 196.75 ± 5.9 J/K/mol
molar heat capacity at constant volume (508.84 K, Fluid (supercritical or subcritical phases), Mass density=343.1 kg/m3): 176.44 ± 5.3 J/K/mol
molar heat capacity at constant volume (508.94 K, Fluid (supercritical or subcritical phases), Mass density=234.3 kg/m3): 228.96 ± 6.9 J/K/mol
molar heat capacity at constant volume (508.94 K, Fluid (supercritical or subcritical phases), Mass density=255.8 kg/m3): 253 ± 7.6 J/K/mol
molar heat capacity at constant volume (508.94 K, Fluid (supercritical or subcritical phases), Mass density=266.3 kg/m3): 267.3 ± 8.1 J/K/mol
molar heat capacity at constant volume (508.94 K, Fluid (supercritical or subcritical phases), Mass density=274 kg/m3): 261.53 ± 7.9 J/K/mol
molar heat capacity at constant volume (508.94 K, Fluid (supercritical or subcritical phases), Mass density=281.9 kg/m3): 233.77 ± 7 J/K/mol
molar heat capacity at constant volume (508.94 K, Fluid (supercritical or subcritical phases), Mass density=288.99 kg/m3): 223.91 ± 6.7 J/K/mol
molar heat capacity at constant volume (508.94 K, Fluid (supercritical or subcritical phases), Mass density=293.3 kg/m3): 219.23 ± 6.6 J/K/mol
molar heat capacity at constant volume (508.94 K, Fluid (supercritical or subcritical phases), Mass density=324.5 kg/m3): 197.11 ± 5.9 J/K/mol
molar heat capacity at constant volume (509.02 K, Fluid (supercritical or subcritical phases), Mass density=255.8 kg/m3): 241.34 ± 7.3 J/K/mol
molar heat capacity at constant volume (509.03 K, Fluid (supercritical or subcritical phases), Mass density=266.3 kg/m3): 252.46 ± 7.6 J/K/mol
molar heat capacity at constant volume (509.03 K, Fluid (supercritical or subcritical phases), Mass density=274 kg/m3): 247.59 ± 7.5 J/K/mol
molar heat capacity at constant volume (509.03 K, Fluid (supercritical or subcritical phases), Mass density=281.9 kg/m3): 225.96 ± 6.8 J/K/mol
molar heat capacity at constant volume (509.03 K, Fluid (supercritical or subcritical phases), Mass density=288.99 kg/m3): 217.96 ± 6.6 J/K/mol
molar heat capacity at constant volume (509.03 K, Fluid (supercritical or subcritical phases), Mass density=293.3 kg/m3): 209.73 ± 6.3 J/K/mol
molar heat capacity at constant volume (509.03 K, Fluid (supercritical or subcritical phases), Mass density=324.5 kg/m3): 192.42 ± 5.8 J/K/mol
molar heat capacity at constant volume (509.12 K, Fluid (supercritical or subcritical phases), Mass density=234.3 kg/m3): 213.22 ± 6.4 J/K/mol
molar heat capacity at constant volume (509.12 K, Fluid (supercritical or subcritical phases), Mass density=266.3 kg/m3): 242.96 ± 7.3 J/K/mol
molar heat capacity at constant volume (509.12 K, Fluid (supercritical or subcritical phases), Mass density=274 kg/m3): 238.4 ± 7.2 J/K/mol
molar heat capacity at constant volume (509.12 K, Fluid (supercritical or subcritical phases), Mass density=281.9 kg/m3): 217.24 ± 6.6 J/K/mol
